Experimental data from US10450344B2, “Antibody-binding polypeptide, antibody-binding fusion polypeptide, and adsorption material” (FUJIFILM Corporation, priority 2014, dated 2019).
Square brackets hold non-standard residues; d marks the D form. Peptide text beside a SMILES is read from it. PEG8 = NCCOCCOCCOCCOCCOCCOCCOCCOCCC(=O)O

Key:
human IgG antibody = assay: SPR evaluation of antibody binding properties of ligand immobilized on CM5 sensor chip; settings: for dissociation rate Koff: SPR, human IgG antibody, 25° C., HEPES buffer, fitting with BIAevaluation4.1
Experimental: The association rate Kon [nM/s] and the dissociation rate Koff [l/s ] of an antibody were calculated from the binding reaction curve, and also the dissociation constant Kd [nM] in the binding reaction of polypeptide 1 with a human IgG antibody was calculated.

[1] = target: Bovine Serum Albumin (BSA) (Bos taurus, UniProt P02769); assay: SPR evaluation of selectivity (binding of BSA to immobilized carrier)
Chain of Bovine Serum Albumin (BSA) (P02769 25-607): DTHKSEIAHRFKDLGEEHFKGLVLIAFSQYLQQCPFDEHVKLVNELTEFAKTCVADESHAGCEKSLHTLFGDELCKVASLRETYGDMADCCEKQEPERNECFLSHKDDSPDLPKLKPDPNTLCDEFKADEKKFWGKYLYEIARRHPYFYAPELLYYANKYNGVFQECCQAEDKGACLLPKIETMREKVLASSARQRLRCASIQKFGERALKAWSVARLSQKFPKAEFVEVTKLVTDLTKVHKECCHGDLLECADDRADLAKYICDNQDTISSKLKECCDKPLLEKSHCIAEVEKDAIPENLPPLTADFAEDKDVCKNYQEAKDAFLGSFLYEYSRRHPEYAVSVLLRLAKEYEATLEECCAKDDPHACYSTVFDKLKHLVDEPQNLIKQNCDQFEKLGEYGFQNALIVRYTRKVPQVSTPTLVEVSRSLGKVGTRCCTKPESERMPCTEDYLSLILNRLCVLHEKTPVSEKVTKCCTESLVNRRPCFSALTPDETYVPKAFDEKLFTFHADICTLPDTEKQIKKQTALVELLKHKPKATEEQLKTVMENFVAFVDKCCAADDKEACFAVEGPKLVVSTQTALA
Experimental: A commercially available CM5 (carboxymethyl dextran introduction type, manufactured by GE Healthcare) sensor chip was set on a surface plasmon resonance (SPR) apparatus Biacore (manufactured by GE Healthcare), HEPES buffer (20 mM HEPES-HCl, 150 mM NaCl, pH 7.4) for SPR was stabilized at a flow rate of 10 μL/min, and 70 μL of a mixed aqueous solution of 0.2 M 1-ethyl-3-(3-dimethylaminopropyl)carbodiimide (EDC, manufactured by Wako Pure Chemical Industries, Ltd.) and 0.04 M N-hydroxysuccinimide (NHS, manufactured by Wako Pure Chemical Industries, Ltd.) was added. Then, 500 μL of a sample solution of polypeptide 1 diluted to 100 μM with the above-mentioned HEPES buffer and treated with a 0.20 μm PTFE filter (manufactured by [sequence]) was supplied to a carrier sample, blocked by an ethanolamine solution, and washed with an aqueous sodium hydroxide solution, followed by immobilization to prepare an immobilized carrier.
1000 nM of Bovine Serum Albumin (BSA, manufactured by Sigma-Aldrich) was added to the immobilized carrier A prepared in the above (1) at 25° C. over 10 min, and the binding amount after 10 minutes in HEPES buffer was measured by SPR.

[2] = Evaluation of alkali resistance (1N NaOH, then antibody-binding amount by SPR); type: physicochemical
Experimental: The synthesized polypeptide 1 was immersed in 1N NaOH at room temperature for 1 hour, and then the ligand was immobilized as in the above (1).

[3] = Evaluation of temporal stability (solution stored at 40° C. for one month, then antibody-binding amount by SPR)
Experimental: A solution of the synthesized polypeptide 1 was stored in a constant-temperature zone (40° C.) for one month, and then the ligand was immobilized as in the above (1).

Compound | dissociation rate Koff (human IgG antibody) [s⁻¹] | other results
CC(=O)N[C@@H](CCC(=O)O)C(=O)N[C@@H](CCC(N)=O)C(=O)N[C@@H](CCC(N)=O)C(=O)N[C@@H](CC(N)=O)C(=O)N[C@@H](C)C(=O)N[C@@H](Cc1ccccc1)C(=O)N[C@@H](Cc1ccc(O)cc1)C(=O)NCCOCCOCCOCCOCCOCCOCCOCCOCCC(=O)N[C@@H](CCCCN)C(=O)NCCOCCOCCOCCOCCOCCOCCOCCOCCC(=O)N[C@@H](CCC(=O)O)C(=O)N[C@@H](CCC(N)=O)C(=O)N[C@@H](CCC(N)=O)C(=O)N[C@@H](CC(N)=O)C(=O)N[C@@H](C)C(=O)N[C@@H](Cc1ccccc1)C(=O)N[C@@H](Cc1ccc(O)cc1)C(=O)O [Example 25, Ac-EQQNAFY-(peg)8-K-(peg)8-EQQNAFY] (Ac-EQQNAFY[PEG8]K[PEG8]EQQNAFY-OH) | 0.00019 | –
C[C@H](NC(=O)[C@H](CC(N)=O)NC(=O)[C@H](CCC(N)=O)NC(=O)[C@H](CCC(N)=O)NC(=O)[C@H](CCC(=O)O)NC(=O)CCOCCOCCOCCOCCOCCOCCOCCOCCN)C(=O)N[C@@H](Cc1ccccc1)C(=O)N[C@@H](Cc1ccc(O)cc1)C(=O)N[C@@H](CCC(=O)O)C(=O)O [Example 24] (H-[PEG8]EQQNAFYE-OH) | 0.00013 | –
H-EQQNAFY-OH [Example 1, EQQNAFY] | 0.00017 | –
H-EQQNAFYEILH-OH [Example 3] | 0.00017 | –
Ac-KKKEQQNAFYEILHKKK-OH [Example 23] | 0.00016 | –
H-DAQQSAFY-OH [Example 17] | 0.00013 | –
H-DQSAFY-OH [Example 18, DQSAFY] | 0.00019 | –
H-EGQNAFY-OH [Example 5, EGQNAFY] | 0.0002 | –
H-DQQSAFYEILH-OH [Example 13] | 0.00015 | –
H-EQQSAFYEILH-OH [Example 11] | 0.00018 | –
H-KKKEQQNAFYEILHKKK-OH [Example 7] | 0.00016 | –
H-KEQQNAFY-OH [Example 2] | 0.00013 | –
Comparative Example 1: wild-type protein A (manufactured by Repligen Corporation) [reference compound] | 0.00025 | –
H-EQQNAFYEILHL-OH [Example 4] | 0.00013 | –
H-EQQNAFY-NH2 [Example 19, EQQNAFY-NH2] | 0.00015 | –
H-EAQQSAFY-OH [Example 14] | 0.00014 | –
NCCNc1nc(NCCc2ccc(O)cc2)nc(Nc2ccccc2)n1 [Comparative Example 3] | 0.00065 | antibody binding properties (in words) (human IgG antibody): insufficient; selectivity (in words) [1]: insufficient; alkali resistance (in words) [2]: sufficient; temporal stability (in words) [3]: sufficient
Ac-EQQNAFYEILHK-OH [Example 21] | 0.00016 | –
H-QQNAFYEI-OH [Comparative Example 4, reference compound] | 0.00024 | antibody binding properties (in words) (human IgG antibody): poor; selectivity (in words) [1]: poor
H-KKKEQQNAFYKKK-OH [Example 6] | 0.00015 | –
H-DQQSAFY-OH [Example 12, DQQSAFY] | 0.00015 | –
H-EQQNAFYGGGKGGGEQQNAFY-OH [Example 8] | 0.00015 | –
H-EQNAFY-OH [Example 9, EQNAFY] | 0.00017 | –
Ac-KKKEQQNAFYKKK-OH [Example 22] | 0.00015 | –
H-EAQQNAFY-OH [Example 16] | 0.00019 | –
Ac-EQQNAFYK-OH [Example 20] | 0.00014 | –
H-EQQSAFY-OH [Example 10, EQQSAFY] | 0.00015 | –
H-EQSAFY-OH [Example 15, EQSAFY] | 0.00014 | –
